Tests used:
JAK3 = target: T1, JAK3 (Homo sapiens, UniProt P52333); assay: JAK3 biochemical assay (ADP-GLO Kinase Assay); details: for IC50: B*: testing performed in a first testing facility, read-out: JAK3 IC50 (nM) Relative, B*; for JAKs/HPK1 IC50 Ratio, B*: ratio of JAK3 IC50 to HPK1 IC50, first testing facility
T1 construct: purchased Thermo fisher PV3855
Summary of the method: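 Human JAK3 (0.78 ng) with 0.2 μg/μL Poly(E4Y1) and 4 μM ATP in 40 mM Tris pH 7.5, 20 mM MgCl2, 0.1 mg/ml BSA, 50 μM DTT, 1% DMSO; 60 min at 25 °C. ADP formed read by ADP-Glo luminescence. 10-dose 3-fold series from 10 μM; IC50 by three-parameter logistic fit.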

HPK1 = HPK1 (Homo sapiens, UniProt Q92918); assay: HPK1 biochemical assay (ADP-GLO Kinase Assay); details: B*: testing performed in a first testing facility; read-out: HPK1 IC50 (nM) Relative, B*
Summary of the method: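 HPK1 (0.6 ng/μL final) activity was followed with MBP substrate and 10 μM ATP in Tris pH 7.5/MgCl2/BSA/DTT buffer, measured by ADP-Glo luminescence. Compounds were tested as 3-fold dilutions from 10 μM. IC50 came from a three-parameter logistic fit, with inhibition normalised to high/low controls.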

HPK1, sequence (Q92918 whole entry): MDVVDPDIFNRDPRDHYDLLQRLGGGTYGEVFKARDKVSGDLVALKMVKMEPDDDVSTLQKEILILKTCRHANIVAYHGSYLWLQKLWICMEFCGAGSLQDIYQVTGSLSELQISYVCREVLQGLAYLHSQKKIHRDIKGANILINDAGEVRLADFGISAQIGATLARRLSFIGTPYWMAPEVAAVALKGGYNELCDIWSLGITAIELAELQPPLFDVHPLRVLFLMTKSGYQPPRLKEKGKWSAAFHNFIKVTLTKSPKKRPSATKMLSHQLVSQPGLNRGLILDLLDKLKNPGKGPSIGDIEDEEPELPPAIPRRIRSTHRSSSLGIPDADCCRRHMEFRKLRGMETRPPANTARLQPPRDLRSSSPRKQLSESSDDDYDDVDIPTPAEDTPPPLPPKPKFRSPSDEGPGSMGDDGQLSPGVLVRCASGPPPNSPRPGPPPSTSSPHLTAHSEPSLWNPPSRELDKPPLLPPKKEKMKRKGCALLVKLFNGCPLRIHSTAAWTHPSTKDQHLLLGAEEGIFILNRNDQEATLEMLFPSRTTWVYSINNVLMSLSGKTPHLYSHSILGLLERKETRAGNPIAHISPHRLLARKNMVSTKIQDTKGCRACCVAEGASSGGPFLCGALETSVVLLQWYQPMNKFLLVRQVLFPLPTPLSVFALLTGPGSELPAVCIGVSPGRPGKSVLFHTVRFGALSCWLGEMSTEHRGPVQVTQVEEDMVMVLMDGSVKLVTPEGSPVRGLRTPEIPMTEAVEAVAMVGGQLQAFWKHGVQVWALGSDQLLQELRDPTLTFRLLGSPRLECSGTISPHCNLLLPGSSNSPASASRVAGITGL
T1 sequence (P52333 781-1124 limits assumed): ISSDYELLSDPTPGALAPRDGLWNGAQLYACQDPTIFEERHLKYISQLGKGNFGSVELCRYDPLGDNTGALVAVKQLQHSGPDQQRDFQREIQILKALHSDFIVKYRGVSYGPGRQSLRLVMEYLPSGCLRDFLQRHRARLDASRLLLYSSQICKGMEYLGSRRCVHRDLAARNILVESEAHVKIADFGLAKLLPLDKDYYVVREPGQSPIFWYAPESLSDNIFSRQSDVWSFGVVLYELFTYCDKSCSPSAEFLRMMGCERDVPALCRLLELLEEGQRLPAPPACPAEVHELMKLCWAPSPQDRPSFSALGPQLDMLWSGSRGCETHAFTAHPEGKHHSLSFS

Row | Structure (SMILES) | IC50 (JAK3) | JAKs/HPK1 IC50 Ratio, B* (JAK3) | IC50 (HPK1)
1 | COc1cc2c(cc1Nc1ncc(Cl)c(N3CC(C)(CC(=O)O)c4cc(F)ccc43)n1)CN(C)CC2 (stereo not drawn) [Example 150, 2-(1-(5-Chloro-2-((6-methoxy-2-methyl-1,2,3,4-tetrahydroisoquinolin-7-yl)amino)pyrimidin-4-yl)-5-fluoro-3-methylindolin-3-yl)acetic acid] | 100 to 500 nM | 171 | ≤ 100 nM
2 | COc1cc2c(cc1Nc1ncc(Cl)c(N3CC(C)(CC(=O)O)c4ccc(F)cc43)n1)CN(C)CC2 (stereo not drawn) [Example 151] | ≤ 100 nM | 187 | ≤ 100 nM
3 | COc1cc2c(cc1Nc1ncc(Cl)c(N3CC(C)(CC(=O)O)c4cc(F)c(F)cc43)n1)CN(C)CC2 (stereo not drawn) [Example 154] | 100 to 500 nM | 430 | ≤ 100 nM
4 | CN1CCc2cc(F)c(Nc3ncc(Cl)c(N4CC(C)(CC(=O)O)c5ccccc54)n3)cc2C1 (stereo not drawn) [Example 156] | ≤ 100 nM | 29 | ≤ 100 nM
5 | CCN1CCc2cc(OC)c(Nc3ncc(Cl)c(N4CC(C)(CC(=O)O)c5ccccc54)n3)cc2C1 (stereo not drawn) [Example 157, 2-(1-(5-Chloro-2-((2-ethyl-6-methoxy-1,2,3,4-tetrahydroisoquinolin-7-yl)amino)pyrimidin-4-yl)-3-methylindolin-3-yl)acetic acid] | 100 to 500 nM | 176 | ≤ 100 nM
6 | COc1cc2c(cc1Nc1ncc(Cl)c(N3CC(C)(CC(=O)O)c4ccccc43)n1)CN(C(C)C)CC2 (stereo not drawn) [Example 158, 2-(1-(5-Chloro-2-((2-isopropyl-6-methoxy-1,2,3,4-tetrahydroisoquinolin-7-yl)amino)pyrimidin-4-yl)-3-methylindolin-3-yl)acetic acid] | 100 to 500 nM | 192 | ≤ 100 nM
7 | COc1cc2c(cc1Nc1ncc(Cl)c(N3CC(C)(CC(=O)O)c4ccccc43)n1)CN(C)C2 (stereo not drawn) [Example 159, 2-(1-(5-Chloro-2-((6-methoxy-2-methylisoindolin-5-yl)amino)pyrimidin-4-yl)-3-methylindolin-3-yl)acetic acid] | ≤ 100 nM | 71 | ≤ 100 nM
8 | COc1cc2c(cc1Nc1ncc(Cl)c(N3CC(C)(CC(=O)O)c4ccccc43)n1)CNCC2 (stereo not drawn) [Example 160, 2-(1-(5-Chloro-2-((6-methoxy-1,2,3,4-tetrahydroisoquinolin-7-yl)amino)pyrimidin-4-yl)-3-methylindolin-3-yl)acetic acid methanesulfonic acid] | ≤ 100 nM | 97 | ≤ 100 nM
9 | COc1cc2c(cc1Nc1ncc(Cl)c(-c3cn(CC(=O)O)c4ccccc34)n1)CN(C)CC2 [Example 161] | 500 to 1000 nM | 510 | ≤ 100 nM
10 | COc1cc2c(cc1Nc1ncc(Cl)c(-c3nn(CC(=O)O)c4ccccc34)n1)CN(C)CC2 [Example 162, 2-(3-(5-Chloro-2-((6-methoxy-2-methyl-1,2,3,4-tetrahydroisoquinolin-7-yl)amino)pyrimidin-4-yl)-1H-indazol-1-yl)acetic acid] | > 1000 nM | 415 | ≤ 100 nM
11 | COc1cc2c(cc1Nc1nccc(N3CC(C(=O)O)c4ccccc43)n1)CN(C)CC2 (stereo not drawn) [Example 163, 1-(2-((6-Methoxy-2-methyl-1,2,3,4-tetrahydroisoquinolin-7-yl)amino)pyrimidin-4-yl)indoline-3-carboxylic acid] | > 1000 nM | 456 | ≤ 100 nM
12 | COc1cc2c(cc1Nc1ncc3cc(C#N)n(-c4ccccc4)c3n1)CN(C)CC2 [Example 164, 2-((6-Methoxy-2-methyl-1,2,3,4-tetrahydroisoquinolin-7-yl)amino)-7-phenyl-7H-pyrrolo[2,3-d]pyrimidine-6-carbonitrile] | 500 to 1000 nM | 306 | ≤ 100 nM
13 | COc1cc2c(cc1Nc1ncc(Cl)c(N3CC(C(=O)O)C4(CCCCC4)C3)n1)CN(C)CC2 (stereo not drawn) [Example 167, 2-(5-Chloro-2-((6-methoxy-2-methyl-1,2,3,4-tetrahydroisoquinolin-7-yl)amino)pyrimidin-4-yl)-2-azaspiro[4.5]decane-4-carboxylic acid] | > 1000 nM | 995 | ≤ 100 nM
14 | COc1cc2c(cc1Nc1ncc(Cl)c(N3CC(C(=O)O)C4(CCCC4)C3)n1)CN(C)CC2 (stereo not drawn) [Example 169, 2-(5-Chloro-2-((6-methoxy-2-methyl-1,2,3,4-tetrahydroisoquinolin-7-yl)amino)pyrimidin-4-yl)-2-azaspiro[4.4]nonane-4-carboxylic acid] | > 1000 nM | 1482 | ≤ 100 nM
